The nature of data set [1]: lipid assay (2,2'-azobis(2-aminopropane) = ABAP assay), Bünger et al. method. The settings on record: according to the Bünger et al. method. From the text:
(§1) A detailed description, besides the […] just described, for the lipid assay (or 2,2′-azobis(2-aminopropane)=ABAP assay) or the TEAC assay (TEAC=trolox equivalent antioxidant capacity) is also found in Bünger et al, International Journal of Cosmetic Science, 2006, 28, 135-146.

A short description of data set [2]: TEAC assay (trolox equivalent antioxidant capacity), Bünger et al. method. The settings on record: according to the Bünger et al. method.
Excerpt: as §1

Data set [3] can be described thus: Photoconversion test, substance on roughened Perspex plates, sun simulation. In kind it is physicochemical. The settings on record: 0.75 mg/cm^−2 on roughened Perspex plates, FIG. 1. As to the method: The substance is applied to roughened Perspex plates (0.75 mg/cm^−2) and irradiated under sun simulation. The dose is to be understood as the absolute, unweighted total UV irradiation dose. After each irradiation step, the UV absorption of the sample is measured against placebo (placebo=Perspex plate with glycerol).

Data set [4] can be described thus: Photoconversion test, 4% solution in isopropyl myristate on Perspex support, simulated solar irradiation. The settings on record: 2 μlcm^−2 on rough Perspex, Suntester 1 h 50 min, extracted with isopropanol, made up to 50 ml. Type of data set: physicochemical. As to the method:
A 4% solution of the substance in isopropyl myristate is applied at a rate of 2 μlcm^−2 to a rough Perspex support. The sample is subjected to simulated solar irradiation in a Suntester for 1 h 50 min. After irradiation, the sample is extracted with 40 ml of isopropanol and made up to a precise volume of 50 ml. Compared with an unirradiated sample, an increase in absorbance at the substance maximum at 285 nm of 0.77 absorption units arises.

Results on two molecules are retold here after US7906684B2, “Antioxidants” (Merck Patent Gesellschaft Mit Beschrankter Haftung, priority 2006, dated 2011).

Turning to `COc1ccc(C(O)c2ccccc2)c(O)c1` (stereo not shown) [Compound (5), 2-(hydroxyphenylmethyl)-5-methoxyphenol], in data set [1], the lipid assay is 8%. For the same molecule, the TEAC assay in data set [2] is given as 50%. In addition, the “UV absorption of the sample after irradiation, measured against placebo” value in data set [3] was “increases in absorption power due to irradiation”.

Regarding `COc1ccc(C(O)c2ccccc2)cc1` (stereo not shown) [Compound (9), (4-methoxyphenyl)phenylmethanol], the “increase in absorbance at the substance maximum at 285 nm compared with an unirradiated sample” value in data set [4] is on record as 0.77 absorption units.
